Paper PMC6979384, “Characterization of the plant homeodomain (PHD) reader family for their histone tail interactions” (Epigenetics & Chromatin, 2020)
Where no end group is shown, it is not given here. [ ]: non-standard residue; d: D form. Arg(Me2a) = CN(C)C(=N)NCCC[C@H](N)C(=O)O; pS = N[C@@H](COP(=O)(O)O)C(=O)O

Experiments:
Assay in all cases: Histone peptide microarray
Type in all cases: binding, human
Conditions in all cases: arrays performed twice, n of 4
[1] = tested on: ING2
Outline: (§1)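 Using an optimized microarray protocol, purified GST-tagged PHD fingers were incubated at 0.5 μM on 293 histone peptides with single or multiple modifications, and array signal was recorded as the average of 4 replicates.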

[2] = tested on: RAG2
Outline: as §1

[3] = tested on: PHF21A
Outline: as §1

[4] = tested on: MORC3 (CW)
Outline: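 Each reader, produced as a GST fusion and purified, was tested at 0.5 μM on synthetic histone peptides (293 in total) carrying single or combinatorial marks. Intensities averaged over four replicates.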

[5] = tested on: BAZ2B
Outline: as §1

[6] = tested on: ING5
Outline: as §1

[7] = tested on: AIRE (PP)
Outline: as §1

[8] = tested on: MLL5
Outline: as §1

[9] = tested on: ING3
Outline: as §1

[10] = tested on: ING1
Outline: as §1

[11] = tested on: KDM4C (TTP)
Outline: as §1

[12] = tested on: PHF8
Outline: as §1

[13] = tested on: PHF13
Outline: as §1

[14] = tested on: PHF23
Outline: as §1

[15] = tested on: PHRF1 (RP)
Outline: as §1

[16] = tested on: TRIM66 (PB)
Outline: as §1

[17] = tested on: DIDO1
Outline: as §1

[18] = tested on: SP140L
Outline: as §1

[19] = tested on: TAF3
Outline: as §1

[20] = tested on: CHD4 (PPCC)
Outline: as §1

[21] = tested on: CHD5 (PCC)
Outline: as §1

[22] = tested on: KDM7A
Outline: as §1

[23] = tested on: KDM5B (1)
Outline: as §1

[24] = tested on: DPF2 (PPC2W2)
Outline: as §1

[25] = tested on: ING4
Outline: as §1

[26] = tested on: KDM5A (3)
Outline: as §1

[27] = tested on: PHF2
Outline: as §1

[28] = tested on: KDM5A (1)
Outline: as §1

[29] = tested on: KDM5B (3)
Outline: as §1

[30] = tested on: BPTF (PB)
Outline: as §1

[31] = tested on: CHD5 (PPCC)
Outline: as §1

H4S1p + R3me2s: H4 1-23
Array Heatmap signal, ING2 ([1]; GST-tagged ING2, histone peptide array): 0.6427
Array Heatmap signal, RAG2 ([2]; GST-tagged RAG2, histone peptide array): 0.4186
Array Heatmap signal, PHF21A ([3]; GST-tagged PHF21A, histone peptide array): 0.5145
Array Heatmap signal, MORC3 (CW) ([4]; GST-tagged MORC3 (CW = CW-type Zn-finger), histone peptide array): 0.5092
Array Heatmap signal, BAZ2B ([5]; GST-tagged BAZ2B, histone peptide array): 0.546
Array Heatmap signal, ING5 ([6]; GST-tagged ING5, histone peptide array): 0.4164
Array Heatmap signal, AIRE (PP) ([7]; GST-tagged AIRE (PP), histone peptide array): 0.5797
Array Heatmap signal, MLL5 ([8]; GST-tagged MLL5, histone peptide array): 0.6789
Array Heatmap signal, ING3 ([9]; GST-tagged ING3, histone peptide array): 0.5221
Array Heatmap signal, ING1 ([10]; GST-tagged ING1, histone peptide array): 0.5472
Array Heatmap signal, KDM4C (TTP) ([11]; GST-tagged KDM4C (TTP = Tandem Tudor domain + PHD), histone peptide array): 0.5709
Array Heatmap signal, PHF8 ([12]; GST-tagged PHF8, histone peptide array): 0.4081
Array Heatmap signal, PHF13 ([13]; GST-tagged PHF13, histone peptide array): 0.6986
Array Heatmap signal, PHF23 ([14]; GST-tagged PHF23, histone peptide array): 0.5739
Array Heatmap signal, PHRF1 (RP) ([15]; GST-tagged PHRF1 (RP), histone peptide array): 0.4781
Array Heatmap signal, TRIM66 (PB) ([16]; GST-tagged TRIM66 (PB = PHD + Bromodomain), histone peptide array): 0.8775
Array Heatmap signal, DIDO1 ([17]; GST-tagged DIDO1, histone peptide array): 0.7409
Array Heatmap signal, SP140L ([18]; GST-tagged SP140L, histone peptide array): 0.3935
Array Heatmap signal, TAF3 ([19]; GST-tagged TAF3, histone peptide array): 0.439
Array Heatmap signal, CHD4 (PPCC) ([20]; GST-tagged CHD4 (PPCC = Dual PHD + Dual Chromodomain), histone peptide array): 0.6243
Array Heatmap signal, CHD5 (PCC) ([21]; GST-tagged CHD5 (PCC = PHD + Dual Chromodomain), histone peptide array): 0.9435
Array Heatmap signal, KDM7A ([22]; GST-tagged KDM7A, histone peptide array): 0.5358
Array Heatmap signal, KDM5B (1) ([23]; GST-tagged KDM5B (1), histone peptide array): 0.7342
Array Heatmap signal, DPF2 (PPC2W2) ([24]; GST-tagged DPF2 (PPC2W2 = Dual PHD + C2W2-type Zn-finger), histone peptide array): 0.7264
Array Heatmap signal, ING4 ([25]; GST-tagged ING4, histone peptide array): 0.5288
Array Heatmap signal, KDM5A (3) ([26]; GST-tagged KDM5A (3), histone peptide array): 0.5274
Array Heatmap signal, PHF2 ([27]; GST-tagged PHF2, histone peptide array): 0.514
Array Heatmap signal, KDM5A (1) ([28]; GST-tagged KDM5A (1), histone peptide array): 0.508
Array Heatmap signal, KDM5B (3) ([29]; GST-tagged KDM5B (3), histone peptide array): 0.6247
Array Heatmap signal, BPTF (PB) ([30]; GST-tagged BPTF (PB = PHD + Bromodomain), histone peptide array): 0.4125
Array Heatmap signal, CHD5 (PPCC) ([31]; GST-tagged CHD5 (PPCC = Dual PHD + Dual Chromodomain), histone peptide array): 0.6121

H2AS1p + R3me2a + K5ac: H2A 1-17 ([pS]G[Arg(Me2a)]GK(Ac)QGGKARAKAKTR; UniProt P0C0S8 2-18, looked up, fragment)
Array Heatmap value (peptide array binding signal) ([1]; ING2, GST-tagged): 0.6108
Array Heatmap value (peptide array binding signal) ([2]; RAG2, GST-tagged): 0.2825
Array Heatmap value (peptide array binding signal) ([3]; PHF21A, GST-tagged): 0.4866
Array Heatmap value (peptide array binding signal) ([4]; MORC3 (CW), GST-tagged): 0.4152
Array Heatmap value (peptide array binding signal) ([5]; BAZ2B, GST-tagged): 0.5108
Array Heatmap value (peptide array binding signal) ([6]; ING5, GST-tagged): 0.4136
Array Heatmap value (peptide array binding signal) ([7]; AIRE (PP), GST-tagged): 0.4865
Array Heatmap value (peptide array binding signal) ([8]; MLL5, GST-tagged): 0.5765
Array Heatmap value (peptide array binding signal) ([9]; ING3, GST-tagged): 0.5376
Array Heatmap value (peptide array binding signal) ([10]; ING1, GST-tagged): 0.5672
Array Heatmap value (peptide array binding signal) ([11]; KDM4C (TTP), GST-tagged): 0.5547
Array Heatmap value (peptide array binding signal) ([12]; PHF8, GST-tagged): 0.3894
Array Heatmap value (peptide array binding signal) ([13]; PHF13, GST-tagged): 0.6406
Array Heatmap value (peptide array binding signal) ([14]; PHF23, GST-tagged): 0.5991
Array Heatmap value (peptide array binding signal) ([15]; PHRF1 (RP), GST-tagged): 0.5154
Array Heatmap value (peptide array binding signal) ([16]; TRIM66 (PB), GST-tagged): 0.6131
Array Heatmap value (peptide array binding signal) ([17]; DIDO1, GST-tagged): 0.7538
Array Heatmap value (peptide array binding signal) ([18]; SP140L, GST-tagged): 0.3795
Array Heatmap value (peptide array binding signal) ([19]; TAF3, GST-tagged): 0.2891
Array Heatmap value (peptide array binding signal) ([20]; CHD4 (PPCC), GST-tagged): 0.5877
Array Heatmap value (peptide array binding signal) ([21]; CHD5 (PCC), GST-tagged): 0.8457
Array Heatmap value (peptide array binding signal) ([22]; KDM7A, GST-tagged): 0.4163
Array Heatmap value (peptide array binding signal) ([23]; KDM5B (1), GST-tagged): 0.7084
Array Heatmap value (peptide array binding signal) ([24]; DPF2 (PPC2W2), GST-tagged): 0.758
Array Heatmap value (peptide array binding signal) ([25]; ING4, GST-tagged): 0.4949
Array Heatmap value (peptide array binding signal) ([26]; KDM5A (3), GST-tagged): 0.5245
Array Heatmap value (peptide array binding signal) ([27]; PHF2, GST-tagged): 0.5212
Array Heatmap value (peptide array binding signal) ([28]; KDM5A (1), GST-tagged): 0.5224
Array Heatmap value (peptide array binding signal) ([29]; KDM5B (3), GST-tagged): 0.5099
Array Heatmap value (peptide array binding signal) ([30]; BPTF (PB), GST-tagged): 0.3885
Array Heatmap value (peptide array binding signal) ([31]; CHD5 (PPCC), GST-tagged): 0.6207
